Data from PubChem BioAssay (NCI).
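Where inhibition never reached the appropriate level, the endpoint shown equals the highest concentration tested. Otherwise, values were interpolated linearly from a five-concentration, 48-hour dose response in 96-well plates. TGI denotes the concentration required for complete inhibition of growth.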

Legend:
Assay in all cases: NCI-60 cell line screen, 48 h
SR leukemia = system: SR leukemia
K-562 leukemia = system: K-562 leukemia
M14 melanoma = system: M14 melanoma
SW-620 colon = system: SW-620 colon
HS 578T breast = system: HS 578T breast
OVCAR-3 ovarian = system: OVCAR-3 ovarian
OVCAR-5 ovarian = system: OVCAR-5 ovarian
HCC-2998 colon = system: HCC-2998 colon
MDA-MB-435 = system: MDA-MB-435
SF-295 CNS = system: SF-295 CNS
MDA-MB-231 breast = system: MDA-MB-231 breast
RXF 393 renal = system: RXF 393 renal
MOLT-4 leukemia = system: MOLT-4 leukemia
NCI/ADR-RES ovarian = system: NCI/ADR-RES ovarian
HCT-116 colon = system: HCT-116 colon
SF-268 CNS = system: SF-268 CNS
PC-3 prostate = system: PC-3 prostate
HT29 colon = system: HT29 colon
KM12 colon = system: KM12 colon
SK-MEL-5 melanoma = system: SK-MEL-5 melanoma
SK-MEL-2 melanoma = system: SK-MEL-2 melanoma
CCRF-CEM leukemia = system: CCRF-CEM leukemia
UO-31 renal = system: UO-31 renal
SK-MEL-28 melanoma = system: SK-MEL-28 melanoma
MCF7 breast = system: MCF7 breast
BT-549 breast = system: BT-549 breast
SK-OV-3 ovarian = system: SK-OV-3 ovarian
OVCAR-8 ovarian = system: OVCAR-8 ovarian
RPMI-8226 leukemia = system: RPMI-8226 leukemia
UACC-257 melanoma = system: UACC-257 melanoma
CAKI-1 renal = system: CAKI-1 renal
NCI-H460 lung = system: NCI-H460 lung
DU-145 prostate = system: DU-145 prostate
IGROV1 ovarian = system: IGROV1 ovarian
A549 NSCLC = system: A549 NSCLC
SNB-19 CNS = system: SNB-19 CNS
HOP-92 NSCLC = system: HOP-92 NSCLC
COLO 205 colon = system: COLO 205 colon
786-0 renal = system: 786-0 renal
MALME-3M melanoma = system: MALME-3M melanoma
TK-10 renal = system: TK-10 renal
HCT-15 colon = system: HCT-15 colon
UACC-62 melanoma = system: UACC-62 melanoma
NCI-H226 lung = system: NCI-H226 lung
U251 CNS = system: U251 CNS
OVCAR-4 ovarian = system: OVCAR-4 ovarian
SF-539 CNS = system: SF-539 CNS
T-47D breast = system: T-47D breast
HL-60(TB) leukemia = system: HL-60(TB) leukemia
MDA-N = system: MDA-N
SNB-75 CNS = system: SNB-75 CNS
NCI-H23 lung = system: NCI-H23 lung
SN12C renal = system: SN12C renal
EKVX NSCLC = system: EKVX NSCLC
ACHN renal = system: ACHN renal
NCI-H522 lung = system: NCI-H522 lung
LOX IMVI melanoma = system: LOX IMVI melanoma
HOP-62 NSCLC = system: HOP-62 NSCLC

Measured: TGI

N#Cc1c(N)c2c(c(-c3ccccc3)c1-c1ccccc1)C(=O)N(N)C2=O
> 100 µM: SR leukemia | K-562 leukemia | M14 melanoma | SW-620 colon | HS 578T breast | OVCAR-3 ovarian | OVCAR-5 ovarian | HCC-2998 colon | MDA-MB-435 | SF-295 CNS | MDA-MB-231 breast | RXF 393 renal | MOLT-4 leukemia | NCI/ADR-RES ovarian | HCT-116 colon | SF-268 CNS | PC-3 prostate | HT29 colon | KM12 colon | SK-MEL-5 melanoma | SK-MEL-2 melanoma | CCRF-CEM leukemia | UO-31 renal | SK-MEL-28 melanoma | MCF7 breast | BT-549 breast | SK-OV-3 ovarian | OVCAR-8 ovarian | RPMI-8226 leukemia | UACC-257 melanoma | CAKI-1 renal | NCI-H460 lung | DU-145 prostate | IGROV1 ovarian | A549 NSCLC | SNB-19 CNS | HOP-92 NSCLC | COLO 205 colon | 786-0 renal | MALME-3M melanoma | TK-10 renal | HCT-15 colon | UACC-62 melanoma | NCI-H226 lung | U251 CNS | OVCAR-4 ovarian | SF-539 CNS | T-47D breast | HL-60(TB) leukemia | MDA-N | SNB-75 CNS | NCI-H23 lung | SN12C renal | EKVX NSCLC | ACHN renal | NCI-H522 lung

COc1cc(C(=O)O)ccc1OS(=O)(=O)O
> 100 µM: SR leukemia | K-562 leukemia | M14 melanoma | SW-620 colon | HS 578T breast | OVCAR-3 ovarian | OVCAR-5 ovarian | HCC-2998 colon | MDA-MB-435 | SF-295 CNS | MDA-MB-231 breast | RXF 393 renal | MOLT-4 leukemia | NCI/ADR-RES ovarian | HCT-116 colon | SF-268 CNS | PC-3 prostate | HT29 colon | KM12 colon | SK-MEL-5 melanoma | SK-MEL-2 melanoma | CCRF-CEM leukemia | UO-31 renal | SK-MEL-28 melanoma | MCF7 breast | BT-549 breast | SK-OV-3 ovarian | OVCAR-8 ovarian | RPMI-8226 leukemia | UACC-257 melanoma | CAKI-1 renal | NCI-H460 lung | DU-145 prostate | IGROV1 ovarian | A549 NSCLC | SNB-19 CNS | HOP-92 NSCLC | COLO 205 colon | 786-0 renal | MALME-3M melanoma | TK-10 renal | HCT-15 colon | UACC-62 melanoma | NCI-H226 lung | U251 CNS | OVCAR-4 ovarian | SF-539 CNS | T-47D breast | HL-60(TB) leukemia | MDA-N | LOX IMVI melanoma | SNB-75 CNS | NCI-H23 lung | HOP-62 NSCLC | SN12C renal | EKVX NSCLC | ACHN renal | NCI-H522 lung
